US20220389420A1, “AGENTS FOR THE TREATMENT OF PATIENTS WITH NSCLC AND METHODS TO PREDICT RESPONSE” (CENTRE NATIONAL DE LA RECHERCHE SCIENTIFIQUE, priority 2016, published 2022)

Experiments:
[1] = tested on: A549 cells; assay: Cisplatin sensitivity of A549 cells overexpressing miRNA (Annexin V/PI, ATP-based viability); assay type: cell-based
Procedure: A549 cells were transfected with pre-miR-24-3p for 2 days and the transfected cells were then exposed to either cisplatin or vinorelbin.
(A): Annexin V/PI staining of A549 cells overexpressing miR-24-3p and exposed to 60 μM cisplatin for 24 h.
(B): Vinorelbin dose response analysis of A549 cells overexpressing miR-24-3p. An ATP-based assay was used to assess cell viability.
(§1) Transfection. Pre-miR-24-3p, and control miRNA (miR-Neg #1) were purchased from Life technologies. For miR-24-3p knockdown experiments, LNA anti-miR-24-3p and LNA negative control were ordered from Exiqon. siRNA directed against BIM, PUMA, PNPO and PDXK were purchased from Life technologies. A549 and H1299 cells were grown in 10% FCS in DMEM and transfected at 30 to 40% confluency in 6-12- or 96 well plates using Lipofectamin RNAi MAX™ (Life technologies) with pre-miRNA, siRNAs LNA inhibitors at a final concentration of 5 nM unless indicated.
Annexin V assay. Annexin-V-FITC apoptosis detection kit (Life technologies) was used to detect apoptotic activity. […] Annexin-V-FITC binding was determined by flow cytometry (excitation wavelength of 488 nm; emission wavelength of 530 nm) using the FITC signal detector (FL1), and propidium iodide staining was detected by the phycoerythrin emission signal detector (FL2).

[2] = tested on: A549 cells; assay: Caspase 3 dependent apoptotic response induced by cisplatin (Western blot); assay type: cell-based; details: miRNA overexpression in A549 cells
[3] = tested on: H1299 cells; assay: Cisplatin resistance validation in H1299 cells; assay type: cell-based; details: H1299, homozygous partial deletion of the TP53 gene
Excerpt: (A) Kill curve of H1299 cells (with a homozygous partial deletion of the TP53 gene) overexpressing miR-24-3p or a miRNA control and exposed to increasing dose of cisplatin.
(§2) (B) Validation of the effects of cisplatin in two LUAD cell lines, H1299 (with a homozygous partial deletion of the TP53 gene) and H1975 (homozygous for the c.818G<A mutation of the TP53 gene).
as §1
Functional genetic screen validation for miR-24-3p. Data were confirmed independently on a distinct lung adenocarcinoma cell line (H1299). Specificity to cisplatin resistance was assessed using docetaxel and vinorelbine.

[4] = tested on: A549 cells; assay: Functional genetic screen for miRNAs inducing cisplatin resistance; assay type: cell-based; details: pre-miR library transfected two days, then cisplatin 60 μM three days, Cell Titer Glow assay
Procedure: A549 cells were transfected with the pre-miR library for two days and the transfected cells were then exposed to cisplatin at 60 μM for three days. Cell viability was measured in single well using Cell Titer Glow assay.
(A): Plot of normalized viability versus −log10 FDR-adjusted P-value for all miRNAs overexpressed in A549 cells. Vertical dashed lines denote the selected normalized viability cutoff, while the Horizontal line denotes the 0.01 selected FDR-adjusted P-value cutoff. Each dot represents a miRNA. Dots surrounded in the upper right quadrant represent miRNAs associated with cisplatin resistance at the chosen cutoffs. The standardized residual viability of the miR-24-3p miRNA was estimated at 4.9512.
Functional genetic screen. Mimics were transfected in authenticated A549 lung adenocarcinoma cell line in 96 well plate format. 48 h following transfection, cells were exposed to cisplatin at 60 μM (2 times DL50; DL50 corresponding to the drug concentration lethal to 50% of the tumor cells) for three days. Viability was assessed using the cell titer glo assay (Promega). […]
miRNA candidate selection. miRNA candidates were selected for further analysis based on statistical significance (p<0.01) and degree of resistance induced (assessed by viability after drug exposure, normalized viability above 3).

[5] = tested on: PUMA 3′UTR; assay: Luciferase assay, PUMA 3′UTR psiCHECK-2 construct in HEK293 cells; assay type: cell-based, human; details: two days after co-transfection, versus pre-miR-Neg
Procedure: (§3) (B): Results of luciferase assays in HEK293 cells transfected with the indicated constructions and pre-miR-24-3p or control miRNA.
(§4) Cells were harvested two days after transfection and luciferase activity were analysed. All renilla luciferase activities were normalized with firefly luciferase activity. **p<0.01.
(§5) Luciferase assay. Molecular constructs were made in psiCHECK-2 (Promega) by cloning behind the Renilla luciferase in the XhoI and NotI restrictions sites, annealed oligonucleotides derived from BIM, PUMA 3′ UTR. HEK293 cells were plated into 96-well and cotransfected using lipofectamin 2000 (Invitrogen) with 0.2 μg of psiCHECK-2 plasmid construct and pre-miR-24-3p or control miRNA at different concentrations. 48 hours after transfection, Firefly and Renilla Luciferase activities were measured using the Dual-Glo Luciferase assay (Promega).

[6] = tested on: H1975 cells; assay: Cisplatin resistance validation in H1975 cells; assay type: cell-based; details: H1975, homozygous c.818G>A mutation of the TP53 gene
Excerpt: as §2

[7] = tested on: human BIM 3′UTR; assay: Luciferase assay, BIM 3′UTR psiCHECK-2 construct in HEK293 cells; assay type: cell-based; details: two days after co-transfection, versus pre-miR-Neg
Procedure: as §3, §4, §5

[8] = tested on: A549 cells; assay: DNA damage response induced by cisplatin (nuclear foci, confocal microscopy); assay type: cell-based; details: 7 h following cisplatin exposure, miRNA overexpression
Procedure: A549 cells overexpressing miR-24-3p were exposed to cisplatin for 7 h and nuclear foci of (i) phosphorylated histone H2A.X at SER139 (y-HAX) and (ii) phosphorylated ATM at Ser1981 (p-ATM) were assessed by confocal microscopy.
(C): percentage of cells (n=3) exposed to cisplatin and containing more than five nuclear foci of y-HAX and phosphor-ATM, respectively after miR-24-3p overexpression.
Immunofluorescence analysis. A549 cells were grown on a Round Glass Coverslips Ø16 mm (thermo scientific) placed inside a 12 Multiwell Plate. Coverslips slides were washed in phosphate-buffered saline and fixed in 4% paraformaldehyde for 15 min, cells were then permeated using 0.1% Triton X-102 (Agilent Technologies) for 10 min. and blocked with PBS solution containing BSA (3%) for 30 min. Incubation with primary antibodies was performed in a blocking solution BSA (1%) at 37° C. for 1 h. After three washes with PBS, cells were incubated with secondary antibodies. Forty five min later, Coverslips slides were fixed on microscope slides using ProLong Gold Antifade Reagent with DAPI (Invitrogen). Fluorescence was viewed with an FV10i Olympus confocal scanning microscope.

Substance: pre-miR-24-3p: miRNA mimic purchased from Life technologies, used to overexpress miR-24-3p (UGGCUCAGUUCAGCAGGAACAG, SEQ ID No:1) (listed as RNA, chemistry not given here)
- resistance to platinum based-compounds (cisplatin, carboplatin, oxaliplatin) ([1]; A549 cells overexpressing the miRNA, comparison with vinorelbin treatment): strongly resistant
- response to cisplatin ([1]; A549 cells transfected with pre-miR, versus cells not overexpressing miR-24-3p): the response to cisplatin was lesser
- caspase 3 dependent apoptotic response induced by cisplatin [2]: strongly inhibits
- cisplatin resistance [3]: contributed to cisplatin resistance independently of p53
- standardized residual viability [4]: 4.9512
- direct targeting of PUMA 3′UTR (renilla luciferase normalized with firefly) [5]: direct targets
- cisplatin resistance [6]: contributed to cisplatin resistance independently of p53
- direct targeting of BIM 3′UTR (renilla luciferase normalized with firefly) [7]: direct targets
- ATM signaling [8]: decreased ATM signaling
- DNA damage (phospho-yH2AX nuclear foci) [8]: less DNA damage
